“Also recorded” adds a separate entry of the source.
What was measured:
[1] = Plasma urate levels in healthy volunteers (clinical trials); type: in vivo, human; settings: daily dose for 10 days, NCT00914303, FIG. 2
Experimental: Subjects received placebo or the indicated daily dose for 10 days, and the difference in plasma urate levels versus baseline was calculated. Each symbol represents one subject.

[2] = tested on: MPO purified from the human cell line HL60; test: MPO inhibition screen (Test A), ascorbate loss at 260 nm; type: biochemical; settings: selectivity for MPO over TPO
Experimental: Methods for the determination of MPO inhibitory activity are disclosed in WO 02/090575. The pharmacological activity of compounds disclosed herein was tested in the following screen (Test A) in which the compounds were tested in the presence of ascorbate, which reacts with MPO-derived hypochlorous acid (HOCl) to form dehydro-ascorbate. The loss of ascorbate is followed by measuring absorbance at 260 nm.
Assay buffer: 100 μM diethyl triamine pentaacetic acid (DTPA) in buffer consisting of 10 mM Na2HPO4/NaH2PO4, 3 mM KCl in 140 mM NaCl, pH 7.4.
Enzyme solution: MPO purified from the human cell line HL60, 1.38 nM (final concentration 0.7 nM) and L-ascorbate, 100 μM (final concentration 50 μM) in Assay buffer
Absorbance was measured at 260 nm to obtain a compound blank value. After an additional 10 min, 40 μL of the substrate solution was added and the absorbance at 260 nm was recorded between 4 and 40 min to obtain kinetic readings of enzyme activity.

Row | IC50 (TPO)/IC50 (MPO) [2] | SMILES | Reduction of plasma urate (uric acid) levels versus baseline [1]
1 | – | CC(C)OCCn1c(=S)[nH]c(=O)c2[nH]ccc21 [AZD3241] | dose-dependent reduction of uric acid; also recorded: dose-dependently reduced urate levels
2 | 1100 | O=c1[nH]c(=S)n(Cc2ccccc2CNC2CCC2)c2cc[nH]c12 [Example 10, 1-{2-[(Cyclobutylamino)methyl]benzyl}-2-thioxo-1,2,3,5-tetrahydro-4H-pyrrolo[3,2-d]pyrimidin-4-one] | –
